Measurements as given in patent US7914800B2, “LTB4 as vaccine adjuvant” (priority 2001, dated 2011).
Entries after “also recorded” stand apart in the source; their conditions may differ.

Columns and labels:
Influenza = test: Anti-Influenza antibody generation in BALB/c mice following immunization with the Fluviral vaccine (ELISA); assay type: in vivo; details: intramuscular
Description: To test the adjuvant potential of LTB4, groups of 10 BALB/c mice were immunized once by intramuscular injection with 5 μl of the commercial “Fluviral” vaccine preparation in combination with saline or 1 ng of LTB4. Fourteen days following immunization, mice were bled and sera analyzed for specific anti-Influenza IgG antibodies by ELISA.
Adult (6-8 weeks) BALB/c female mice were immunized by intramuscular injection with 5 μl of the commercial Influenza (Fluviral) vaccine in combination or not with 1 ng of LIB4. Fourteen days later, mice were bled by cardiac puncture and sera obtained. Anti-Influenza antibodies were quantitated by enzyme-linked immunosorbent assay (ELISA). Wells of a 96-well plate were coated with the Fluvial vaccine preparation ( 1/100 dilution) in 0.1 M carbonate buffer (pH 9.0) by overnight incubation at 4° C. Wells were washed with Tris-buffered saline with 0.1% Tween-20 (TBS-T) followed by the addition of 100 μl of increasing dilutions of the sera to be tested. […] After 30 minutes, the absorbance (405 nm) from each well was recorded using an ELISA plate reader. The values, expressed as optical density (OD), were plotted against the reciprocal of serum dilution.

[1] = system: mycobacterium tuberculosis; assay type: in vivo, BALB/c mice; details: 1-10 ng LTB4 with BCG vaccine, intradermal on days 0, 24, 68 and 145; sera at day 160
murine CMV [2] = test: Total anti-CMV antibodies following acute CMV infection in BALB/c mice (ELISA); assay type: in vivo; details: LTB4 5 μg/kg i.p. 3 times a week for 12 weeks from day 5 post-infection
Description: Our next series of experiments were designed to test the potential of LTB4 to modulate antibody response during an acute CMV infection. BALB/c mice were infected by intraperitoneal (i.p.) injection with 10,000 pfu of murine CMV. On day 5 post-infection, mice (n=10) received saline by i.p. injection or LTB4 (5 μg/kg) (n=9) by i.p. injection 3 times a week for 12 weeks. At that time, sera was taken from each mouse and tested for anti-CMV specific antibodies.
Adult (6-8 weeks) female BALB/c mice were infected by intraperitoneal (I.P.) injection with 1×10^4 pfa of murine CMV. Starting on the fifth day post-infection, mice were injected with saline or LTB4 (5 μg/kg) by I.P. injection at a frequency of three times a week for 12 weeks. Mice were then bled and sacrificed. Total anti-CMV antibodies from each mouse were quantified by ELISA. ELISA plates were coated with a lysates from CMV-infected fibroblasts as the source of CMV antigens. One μg of protein lysates were added to each well and incubated-overnight at 4° C. After several washes with TBS-T, non-specific sites were blocked by the addition of saline containing 10% fetal bovine serum for one hour at room temperature. […] After 30 minutes, the absorbance (405 nm) from each well was recorded using an ELISA plate reader. The values, expressed as optical density (OD), were plotted against the reciprocal of serum dilution. […]

murine CMV [3] = test: Neutralizing CMV antibodies in sera of CMV-infected mice (plaque reduction on mouse embryonic fibroblast); assay type: in vivo, BALB/c mice; details: the 7 positive sera of LTB4 treated mice; 1/100 dilution; 175 pfu murine CMV
Description: Lastly, the sera from each mouse infected with CMV and treated with saline or LTB4 (see above) were analyzed for neutralizing antibodies. Briefly, a 1/100 dilution of individual serum was incubated with 175 pfu of murine CMV for 1 hour on ice. Samples (sera-virus) were then added to mouse embryonic fibroblast and incubated at 37° C. for 2 hour. Unadsorbed viruses were removed and cells were overlaid with methyl cellulose and incubated for 4 days at 37° C. in a humidified atmosphere with 5% CO2. At this time cells were fixed, colored with violet crystal and the number of plaques (CMV infected foci) counted. […] Uninfected mice had no neutralizing antibodies against CMV, as expected. […] We next compared the neutralizing activity of sera that tested positive for CMV neutralization. The 2 sera of infected mice that received saline were able to reduce, in average, CMV infectivity by 24%. In contrast, the 7 sera of LTB4 treated-mice were found capable of reducing CMV infectivity by 45%, almost twice the activity of control mice.
The serum from each mouse, described above, were tested for their CMV neutralizing activity. Briefly, a 1/100 dilution of individual serum was incubated with 175 pfu of murine CMV for 1 hour on ice. […] At this time cells were fixed, colored with violet crystal and the number of plaques (CMV infected foci) counted. […]

B lymphocytes = details: cited from earlier work

SMILES: CCCCC/C=C\C[C@@H](O)/C=C/C=C/C=C\[C@@H](O)CCCC(=O)O [LTB4, Leukotriene B4]
- anti-Influenza IgG antibody response (ELISA OD) versus vaccine + saline (Influenza; 1 ng LTB4 with 5 μl Fluviral vaccine, once, sera at day 14, p<0.05 in all three dilutions): greater anti-Influenza antibody response; also recorded: significantly higher anti-Influenza antibody response
- optimal dose of LTB4 as adjuvant (Influenza; with 5 μl Fluviral vaccine): 1 ng
- anti-BCG antibodies (ELISA OD) versus BCG + saline [1]: higher levels of anti-BCG antibodies; also recorded: greater reactivity against mycobacterium antigens
- total anti-CMV antibodies (ELISA OD) versus saline-treated group (murine CMV [2]): more anti-CMV antibodies
- reduction of CMV infectivity by sera positive for CMV neutralization (average) (murine CMV [3]): 45%
- effect on B cell proliferation or immunoglobulin synthesis (IgG or IgM) (B lymphocytes; LTB4 by itself, in absence of exogenous cytokines or stimuli, in vitro): no effects
- effect on synthesis of immunoglobulin from B lymphocytes (B lymphocytes; conflicting paper (Rola-Plecszczynski 1982)): inhibitory effects
